ChEMBL document CHEMBL5518211, “Design, Synthesis, and Antitumor Activity Evaluation of Novel VISTA Small Molecule Inhibitors” (J Med Chem, 2024)

Assays:
[1] = biological target: T1, V-type immunoglobulin domain-containing suppressor of T-cell activation (Mus musculus, UniProt Q9D659); assay: Binding affinity to mouse VISTA ECD assessed as dissociation constant by MST analysis
T1 sequence (Q9D659 whole entry): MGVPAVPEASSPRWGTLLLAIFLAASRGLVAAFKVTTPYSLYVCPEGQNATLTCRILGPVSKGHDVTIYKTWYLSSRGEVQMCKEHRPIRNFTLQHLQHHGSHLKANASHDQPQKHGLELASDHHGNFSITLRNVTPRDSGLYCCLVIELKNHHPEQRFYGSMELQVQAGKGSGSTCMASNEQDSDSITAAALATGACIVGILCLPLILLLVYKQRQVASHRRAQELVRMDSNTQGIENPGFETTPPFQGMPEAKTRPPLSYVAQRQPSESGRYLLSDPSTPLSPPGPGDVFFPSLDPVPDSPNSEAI

[2] = biological target: T2, V-type immunoglobulin domain-containing suppressor of T-cell activation (Homo sapiens, UniProt Q9H7M9)
T2 sequence (Q9H7M9 whole entry): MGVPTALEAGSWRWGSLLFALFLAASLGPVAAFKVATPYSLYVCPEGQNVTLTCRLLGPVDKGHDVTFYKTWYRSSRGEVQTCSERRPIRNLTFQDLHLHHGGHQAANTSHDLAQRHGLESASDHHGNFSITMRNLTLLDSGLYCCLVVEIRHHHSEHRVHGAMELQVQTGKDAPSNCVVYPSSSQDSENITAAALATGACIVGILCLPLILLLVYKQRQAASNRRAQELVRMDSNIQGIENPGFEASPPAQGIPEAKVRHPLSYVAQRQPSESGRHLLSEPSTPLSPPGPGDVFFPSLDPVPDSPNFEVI
Description: Binding affinity to human VISTA assessed as dissociation constant by MST analysis

With `Cc1ccc2nc(Nc3nc(O)cc(CSc4nnc(C)s4)n3)nc(C)c2c1` the Kd [1] was 0.647 µM.

`COC1C=C(CNCCNC(C)=O)N=C(Nc2cccc(O)c2)N1` (configuration not stated) was tested, and the Kd [2] was 4.73 µM.
